Reference: patent US20240124442A1, “TRICYCLIC-AMIDO-BICYCLIC PRMT5 INHIBITORS” (AMGEN INC., priority 2021, published 2024)

Assays:
HCT116 MTAP null cells = assay: HCT116 MTAP null cell line proliferation / cell viability (CellTiter-Glo, 6 days); format: cell-based; conditions: 144 h; HCT116 MTAP null cells, 6 days treatment, CellTiter-Glo cell viability; read-out: HCT-116 MTAP null IC50
How it was run: (§1)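 Anti-proliferative IC50s were derived from CellTiter-Glo signal in HCT116 parent and MTAP-null cells after six days on compound. Serial dilutions reached top concentrations of 1, 10 or 50 μM, with DMSO-only wells as control.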

HCT116 WT cells = assay: HCT116 WT (parent) cell line proliferation / cell viability (CellTiter-Glo, 6 days); format: cell-based; conditions: Homo sapiens, HCT-116, 144 h, 6 days treatment
How it was run: as §1

SMILES | IC50 (HCT116 MTAP null cells) | IC50 (HCT116 WT cells)
Cc1cc2nc(N)c3cnn(C)c3c2cc1C(=O)N(C)[C@@H]1COCc2c1ccc(C(F)(F)F)c2F (single isomer, unassigned) [Example 436] | 2 nM | 23 nM
Cc1cc2nc(N)c3cnn(C)c3c2cc1C(=O)N(C)[C@H]1COCc2c1ccc(C(F)(F)F)c2F (single isomer, unassigned) [Example 437] | 41 nM | 687 nM
CCOc1ccc2c(n1)COC[C@H]2N(C)C(=O)c1ccc2nc(N)c3c(cnn3C)c2c1 (single isomer, unassigned) [Example 438] | 193 nM | 25200 nM
CN(C(=O)c1cc2c(cc1F)nc(N)c1c2cnn1C)[C@@H]1CCCc2nc(C(F)(F)F)ccc21 (single isomer, unassigned) [Example 439] | 192 nM | 9460 nM
CN(C(=O)c1cc2c(cc1F)nc(N)c1c2cnn1C)[C@@H]1COCc2c1ccc(C(F)(F)F)c2F (single isomer, unassigned) [Example 440] | 48 nM | 3010 nM
CN(C(=O)c1ccc2nc(N)c3cnn(C)c3c2c1)[C@@H]1CCOCc2nc(C(F)(F)F)ccc21 (single isomer, unassigned) [Example 441] | 181 nM | 9310 nM
CN(C(=O)c1cc2c3c(c(N)nc2cn1)COC3)[C@@H]1COc2cc(C(F)(F)F)ccc21 (single isomer, unassigned) [Example 522] | 63 nM | 2470 nM
CN(C(=O)c1cc2c3c(c(N)nc2cn1)COC3)[C@H]1COc2cc(C(F)(F)F)ccc21 (single isomer, unassigned) [Example 523] | 2720 nM | 10000 nM
COc1ccc2c(n1)OC[C@H]2N(C)C(=O)c1ccc2nc(N)c3c(c2c1)COC3 (single isomer, unassigned) [Example 524] | 396 nM | 24500 nM
COc1ccc2c(n1)OC[C@@H]2N(C)C(=O)c1ccc2nc(N)c3c(c2c1)COC3 (single isomer, unassigned) [Example 525] | 4160 nM | 50000 nM
CN(C(=O)c1ccc2nc(N)c3c(c2c1)COC3)[C@@H]1COc2cc(OC(F)F)ccc21 (single isomer, unassigned) [Example 526] | 52 nM | 3820 nM
CN(C(=O)c1ccc2nc(N)c3c(c2c1)COC3)[C@@H]1CCc2nc(C(F)(F)F)ccc21 (single isomer, unassigned) [Example 527] | 143 nM | 7520 nM
CN(C(=O)c1ccc2nc(N)c3c(c2c1)COC3)[C@H]1CCc2nc(C(F)(F)F)ccc21 (single isomer, unassigned) [Example 528] | 5280 nM | 50000 nM
CN(C(=O)c1ccc2nc(N)c3c(c2c1)COC3)C1COc2nc(C(F)(F)F)ccc21 (single isomer, unassigned) [Example 529] | 89 nM | 5590 nM
CN(C(=O)c1ccc2nc(N)c3c(c2c1)COC3)[C@H]1COc2nc(C(F)(F)F)ccc21 (single isomer, unassigned) [Example 530] | 2510 nM | 40200 nM
CN(C(=O)c1ccc2nc(N)c3c(c2c1)COC3)[C@@H]1CCc2cc(OC(F)(F)F)ccc21 (single isomer, unassigned) [Example 531] | 113 nM | 4860 nM
CN(C(=O)c1ccc2nc(N)c3c(c2c1)COC3)[C@H]1CCc2cc(OC(F)(F)F)ccc21 (single isomer, unassigned) [Example 532] | 2510 nM | 6680 nM
CCN(C(=O)c1ccc2nc(N)c3c(c2c1)COC3)[C@@H]1COc2cc(C(F)(F)F)ccc21 (single isomer, unassigned) [Example 533] | 17 nM | 816 nM
CCN(C(=O)c1ccc2nc(N)c3c(c2c1)COC3)[C@H]1COc2cc(C(F)(F)F)ccc21 (single isomer, unassigned) [Example 534] | 1730 nM | 23900 nM
Nc1nc2ccc(C(=O)N(CC3CC3)[C@@H]3COc4cc(C(F)(F)F)ccc43)cc2c2c1COC2 (single isomer, unassigned) [Example 535] | 7 nM | 198 nM
Nc1nc2ccc(C(=O)N(CC3CC3)[C@H]3COc4cc(C(F)(F)F)ccc43)cc2c2c1COC2 (single isomer, unassigned) [Example 536] | 728 nM | 11700 nM
C[C@H]1OCc2c1c(N)nc1ccc(C(=O)N(C)[C@@H]3COc4cc(C(F)(F)F)ccc43)cc21 (single isomer, unassigned) [Example 537] | 21 nM | 881 nM
C[C@H]1OCc2c1c(N)nc1ccc(C(=O)N(C)[C@H]3COc4cc(C(F)(F)F)ccc43)cc21 (single isomer, unassigned) [Example 538] | 1840 nM | 23600 nM
CCN(C(=O)c1ccc2nc(N)c3c(c2c1)CO[C@@H]3C)[C@@H]1COc2cc(C(F)(F)F)ccc21 (single isomer, unassigned) [Example 539] | 15 nM | 663 nM

SMILES | IC50 (HCT116 MTAP null cells) | IC50 (HCT116 WT cells)
CCN(C(=O)c1ccc2nc(N)c3c(c2c1)CO[C@@H]3C)[C@H]1COc2cc(C(F)(F)F)ccc21 (single isomer, unassigned) [Example 540] | 722 nM | 18600 nM
CN(C(=O)c1cc2c3c(c(N)nc2cn1)COC3)[C@@H]1COc2cc(C#N)ccc21 (single isomer, unassigned) [Example 541] | 77 nM | 3800 nM
CN(C(=O)c1cc2c3c(c(N)nc2cn1)COC3)[C@@H]1COc2cc(C(F)(F)F)ncc21 (single isomer, unassigned) [Example 542] | 785 nM | 46000 nM
CCN(C(=O)c1cc2c3c(c(N)nc2cn1)COC3)[C@@H]1COc2cc(C(F)(F)F)ccc21 (single isomer, unassigned) [Example 543] | 49 nM | 1460 nM
CCN(C(=O)c1cc2c3c(c(N)nc2cn1)COC3)[C@H]1COc2cc(C(F)(F)F)ccc21 (single isomer, unassigned) [Example 544] | 5230 nM | 15200 nM
CN(C(=O)c1cc2c3c(c(N)nc2cn1)COC3)[C@@H]1COc2cc(C(F)(F)F)cc(F)c21 (single isomer, unassigned) [Example 545] | 68 nM | 3250 nM
CN(C(=O)c1cc2c3c(c(N)nc2cn1)COC3)[C@H]1COc2cc(C(F)(F)F)cc(F)c21 (single isomer, unassigned) [Example 546] | 9590 nM | 30700 nM
Nc1nc2cnc(C(=O)N(C3CC3)[C@@H]3COc4cc(C(F)(F)F)ccc43)cc2c2c1COC2 (single isomer, unassigned) [Example 547] | 122 nM | 2460 nM
CN(C(=O)c1cc2c3c(c(N)nc2cn1)COC3)[C@@H]1COc2cc(Cl)c(C(F)(F)F)cc21 (single isomer, unassigned) [Example 548] | 58 nM | 3060 nM
CN(C(=O)c1cc2c3c(c(N)nc2cc1F)COC3)[C@@H]1COc2cc(C#N)ccc21 (single isomer, unassigned) [Example 551] | 17 nM | 1340 nM
CN(C(=O)c1cc2c3c(c(N)nc2cc1F)COC3)[C@@H]1COc2cc(C(F)(F)F)ccc21 (single isomer, unassigned) [Example 552] | 34 nM | 1220 nM
CN(C(=O)c1cc2c3c(c(N)nc2cc1F)COC3)[C@H]1COc2cc(C(F)(F)F)ccc21 (single isomer, unassigned) [Example 553] | 1380 nM | 11400 nM
Nc1nc2cc(F)c(C(=O)N(C3CC3)[C@@H]3COc4cc(C(F)(F)F)ccc43)cc2c2c1COC2 (single isomer, unassigned) [Example 554] | 21 nM | 1400 nM
Nc1nc2cc(F)c(C(=O)N(C3CC3)[C@H]3COc4cc(C(F)(F)F)ccc43)cc2c2c1COC2 (single isomer, unassigned) [Example 555] | 1620 nM | 13300 nM
Nc1nc2cc(F)c(C(=O)N(CC3CC3)[C@@H]3COc4cc(C(F)(F)F)ccc43)cc2c2c1COC2 (single isomer, unassigned) [Example 556] | 11 nM | 133 nM
Nc1nc2cc(F)c(C(=O)N(CC3CC3)[C@H]3COc4cc(C(F)(F)F)ccc43)cc2c2c1COC2 (single isomer, unassigned) [Example 557] | 665 nM | 10500 nM
CN(C(=O)c1cc2c3c(c(N)nc2cc1Cl)COC3)[C@@H]1CCc2nc(C(F)(F)F)ccc21 (single isomer, unassigned) [Example 558] | 17 nM | 941 nM
CN(C(=O)c1cc2c3c(c(N)nc2cc1Cl)COC3)[C@H]1CCc2nc(C(F)(F)F)ccc21 (single isomer, unassigned) [Example 559] | 1280 nM | 41400 nM
CN(C(=O)c1cc2c3c(c(N)nc2cc1Cl)COC3)[C@@H]1COc2cc(C(F)(F)F)ccc21 (single isomer, unassigned) [Example 560] | 12 nM | 594 nM
CN(C(=O)c1cc2c3c(c(N)nc2cc1Cl)COC3)[C@H]1COc2cc(C(F)(F)F)ccc21 (single isomer, unassigned) [Example 561] | 657 nM | 10800 nM
CN(C(=O)c1cc2c3c(c(N)nc2cc1Cl)COC3)[C@@H]1COc2nc(C(F)(F)F)ccc21 (single isomer, unassigned) [Example 562] | 26 nM | 1820 nM
CN(C(=O)c1cc2c3c(c(N)nc2cc1Cl)COC3)[C@H]1COc2nc(C(F)(F)F)ccc21 (single isomer, unassigned) [Example 563] | 1960 nM | 25100 nM
CN(C(=O)c1cc2c3c(c(N)nc2cc1Cl)COC3)[C@@H]1COc2cc(S(C)(=O)=O)ccc21 (single isomer, unassigned) [Example 564] | 19 nM | 925 nM
